According to ChEMBL document CHEMBL3603759, “Ribosome-targeting antibiotics as inhibitors of oncogenic microRNAs biogenesis: Old scaffolds for new perspectives in RNA targeting” (Bioorg Med Chem, 2015):
Activity calls are given as the source filed them. The rule behind the calls is not given here.

Key:
[1] = Binding affinity to 5'-FAM-pre-miR-372 (unknown origin) after 4 hrs by fluorescence assay in presence of 100-fold excess of 15-mer DNA
[2] = Binding affinity to 5'-FAM-pre-miR-17 (unknown origin) after 4 hrs by fluorescence assay
[3] = Inhibition of pre-miR-373 (unknown origin) cleavage assessed as reduction of oncogenic microRNAs biogenesis by measuring fluorescence every minute for 5 hrs using 5'-FAM,3'-dabcyl-pre-miRNA beacons by FRET assay in presence of recombinant Dicer
[4] = Binding affinity to 5'-FAM-pre-miR-372 (unknown origin) after 4 hrs by fluorescence assay
[5] = Ratio of Kd for 5'-FAM-pre-miR-372 (unknown origin) in presence of 100-fold excess of 15-mer DNA to Kd for 5'-FAM-pre-miR-372 (unknown origin)
[6] = Inhibition of pre-miR-373 (unknown origin) cleavage assessed as reduction of oncogenic microRNAs biogenesis at 200 uM by measuring fluorescence every minute for 5 hrs using 5'-FAM,3'-dabcyl-pre-miRNA beacons by FRET assay in presence of recombinant Dicer
[7] = Ratio of Kd for 5'-FAM-pre-miR-372 (unknown origin) in presence of 100-fold excess of Escherichia coli tRNA to Kd for 5'-FAM-pre-miR-372 (unknown origin)
[8] = Inhibition of pre-miR-21 (unknown origin) cleavage assessed as reduction of oncogenic microRNAs biogenesis at 200 uM by measuring fluorescence every minute for 5 hrs using 5'-FAM,3'-dabcyl-pre-miRNA beacons by FRET assay in presence of recombinant Dicer
[9] = Inhibition of pre-miR-21 (unknown origin) cleavage assessed as reduction of oncogenic microRNAs biogenesis by measuring fluorescence every minute for 5 hrs using 5'-FAM,3'-dabcyl-pre-miRNA beacons by FRET assay in presence of recombinant Dicer
[10] = Inhibition of pre-miR-372 (unknown origin) cleavage assessed as reduction of oncogenic microRNAs biogenesis by measuring fluorescence every minute for 5 hrs using 5'-FAM,3'-dabcyl-pre-miRNA beacons by FRET assay in presence of recombinant Dicer
[11] = Inhibition of pre-miR-17 (unknown origin) cleavage assessed as reduction of oncogenic microRNAs biogenesis at 200 uM by measuring fluorescence every minute for 5 hrs using 5'-FAM,3'-dabcyl-pre-miRNA beacons by FRET assay in presence of recombinant Dicer
[12] = Binding affinity to 5'-FAM-pre-miR-372 (unknown origin) assessed as change in total free energy by thermodynamic assay
[13] = Binding affinity to 5'-FAM-pre-miR-373 (unknown origin) after 4 hrs by fluorescence assay
[14] = Inhibition of pre-miR-372 (unknown origin) cleavage assessed as reduction of oncogenic microRNAs biogenesis at 200 uM by measuring fluorescence every minute for 5 hrs using 5'-FAM,3'-dabcyl-pre-miRNA beacons by FRET assay in presence of recombinant Dicer
[15] = Binding affinity to 5'-FAM-pre-miR-372 (unknown origin) after 4 hrs by fluorescence assay in presence of 100-fold excess of Escherichia coli tRNA
[16] = Inhibition of pre-miR-17 (unknown origin) cleavage assessed as reduction of oncogenic microRNAs biogenesis by measuring fluorescence every minute for 5 hrs using 5'-FAM,3'-dabcyl-pre-miRNA beacons by FRET assay in presence of recombinant Dicer

CN[C@@H]1[C@@H](O[C@H]2O[C@H](CO)[C@@H](N)[C@H](O)[C@H]2O)OC2C[C@@H](N)[C@@H](O[C@H]3[C@H](O)[C@@H](O)[C@H](N)C[C@@H]3N)OC2[C@@H]1O (some centres undefined) [APRAMYCIN]
Kd [1]: 6.55 µM | Kd ([2]; read-out: Kd): 1.03 µM | IC50 [3]: 335 µM | Kd ([4]; read-out: Kd): 2.99 µM | Ratio [5]: 2.2 | inhibition [6]: 60% | Ratio [7]: 3 | inhibition [8]: 60% | IC50 [9]: 170 µM | IC50 [10]: 162 µM | inhibition [11]: 60% | Activity [12]: 72% | Kd ([13]; read-out: Kd): 4.2 µM | inhibition [14]: 60% | Kd [15]: 9.05 µM

CC[C@H]1OC(=O)[C@H](C)[C@@H](O[C@H]2C[C@@](C)(OC)[C@@H](O)[C@H](C)O2)[C@H](C)[C@@H](O[C@@H]2O[C@H](C)C[C@H](N(C)C)[C@H]2O)[C@](C)(O)C[C@@H](C)CN(C)[C@H](C)[C@@H](O)[C@]1(C)O [AZITHROMYCIN]
Kd [1]: 7.43 µM | Kd ([2]; read-out: Kd): 1.63 µM | Kd ([4]; read-out: Kd): 1.62 µM | Ratio [5]: 4.5 | Ratio [7]: 1.2 | Kd ([13]; read-out: Kd): 1.41 µM | Kd [15]: 1.9 µM

NC[C@H]1O[C@H](O[C@H]2[C@H](O)[C@@H](O[C@H]3O[C@H](CO)[C@@H](O)[C@H](N)[C@H]3O)[C@H](N)C[C@@H]2N)[C@H](N)[C@@H](O)[C@@H]1O [BEKANAMYCIN]
Kd [2]: Not Active | Kd [4]: Not Active | inhibition [6]: inactive | inhibition [8]: inactive | inhibition [11]: inactive | Kd [13]: Not Active | inhibition [14]: inactive

O=C(N[C@H](CO)[C@H](O)c1ccc([N+](=O)[O-])cc1)C(Cl)Cl [CHLORAMPHENICOL]
Kd [2]: Not Active | Kd [4]: Not Active | Kd [13]: Not Active

CCC[C@@H]1C[C@@H](C(=O)N[C@@H]([C@H]2O[C@H](SC)[C@H](O)[C@@H](O)[C@H]2O)[C@H](C)Cl)N(C)C1 [CLINDAMYCIN]
Kd [2]: Not Active | Kd [4]: Not Active | Kd [13]: Not Active

C[C@H]1c2cccc(O)c2C(=O)C2=C(O)[C@]3(O)C(=O)C(C(N)=O)=C(O)[C@@H](N(C)C)[C@@H]3[C@@H](O)[C@@H]21 [DOXYCYCLINE]
Kd [1]: 1.62 µM | Kd ([2]; read-out: Kd): 0.94 µM | IC50 [16]: 380 µM | IC50 [3]: 366 µM | Kd ([4]; read-out: Kd): 0.908 µM | Ratio [5]: 1.8 | inhibition [6]: 20% | Ratio [7]: 2 | inhibition [8]: 20% | IC50 [9]: 555 µM | IC50 [10]: 567 µM | inhibition [11]: 20% | Activity [12]: 78% | Kd ([13]; read-out: Kd): 1.42 µM | inhibition [14]: 20% | Kd [15]: 2 µM

CC[C@H]1OC(=O)[C@H](C)[C@@H](O[C@H]2C[C@@](C)(OC)[C@@H](O)[C@H](C)O2)[C@H](C)[C@@H](O[C@@H]2O[C@H](C)C[C@H](N(C)C)[C@H]2O)[C@](C)(O)C[C@@H](C)C(=O)[C@H](C)[C@@H](O)[C@]1(C)O [ERYTHROMYCIN]
Kd [1]: 30.7 µM | Kd ([2]; read-out: Kd): 27.4 µM | Kd ([4]; read-out: Kd): 6.11 µM | Ratio [5]: 5 | Ratio [7]: 1.4 | Kd ([13]; read-out: Kd): 6.51 µM | Kd [15]: 8.73 µM

CCC[C@@H]1C[C@@H](C(=O)N[C@@H]([C@H]2O[C@H](SC)[C@H](O)[C@@H](O)[C@H]2O)[C@@H](C)O)N(C)C1 [LINCOMYCIN]
Kd [2]: Not Active | Kd [4]: Not Active | Kd [13]: Not Active

CC(=O)NC[C@H]1CN(c2ccc(N3CCOCC3)c(F)c2)C(=O)O1 [LINEZOLID]
Kd [2]: Not Active | Kd [4]: Not Active | Kd [13]: Not Active

NC[C@H]1O[C@H](O[C@H]2[C@H](O)[C@@H](O)[C@H](N)C[C@@H]2N)[C@H](N)[C@@H](O)[C@@H]1O [NEAMINE]
Kd [1]: 248 µM | Kd ([2]; read-out: Kd): 24.9 µM | IC50 [3]: 751 µM | Kd ([4]; read-out: Kd): 160 µM | Ratio [5]: 1.5 | inhibition [6]: 10% | Ratio [7]: 2.5 | inhibition [8]: 10% | IC50 [10]: 298 µM | inhibition [11]: 10% | Activity [12]: 72% | Kd ([13]; read-out: Kd): 187 µM | inhibition [14]: 10% | Kd [15]: 394 µM

CN(C)[C@@H]1C(O)=C(C(N)=O)C(=O)[C@@]2(O)C(O)=C3C(=O)c4c(O)cccc4[C@@](C)(O)[C@H]3[C@H](O)[C@@H]12 [OXYTETRACYCLINE]
Kd [1]: 10.2 µM | Kd ([2]; read-out: Kd): 6.22 µM | IC50 [16]: 392 µM | IC50 [3]: 491 µM | Kd ([4]; read-out: Kd): 6.15 µM | Ratio [5]: 1.6 | inhibition [6]: 10% | Ratio [7]: 1.3 | inhibition [8]: 10% | IC50 [9]: 613 µM | IC50 [10]: 657 µM | inhibition [11]: 10% | Activity [12]: 90% | Kd ([13]; read-out: Kd): 5.2 µM | inhibition [14]: 10% | Kd [15]: 8.01 µM

NC[C@@H]1O[C@H](O[C@H]2[C@@H](O)[C@H](O[C@@H]3[C@@H](O)[C@H](N)C[C@H](N)[C@H]3O[C@H]3O[C@H](CO)[C@@H](O)[C@H](O)[C@H]3N)O[C@@H]2CO)[C@H](N)[C@@H](O)[C@@H]1O [PAROMOMYCIN]
Kd [1]: 167 µM | Kd ([2]; read-out: Kd): 44 µM | IC50 [3]: 345 µM | Kd ([4]; read-out: Kd): 138 µM | Ratio [5]: 1.2 | inhibition [6]: 10% | Ratio [7]: 1 | inhibition [8]: 10% | IC50 [9]: 543 µM | IC50 [10]: 773 µM | inhibition [11]: 10% | Activity [12]: 61% | Kd ([13]; read-out: Kd): 91.2 µM | inhibition [14]: 10% | Kd [15]: 133 µM

COc1ccc(C[C@H](N)C(=O)N[C@H]2[C@@H](O)[C@H](n3cnc4c(N(C)C)ncnc43)O[C@@H]2CO)cc1 [PUROMYCIN]
Kd ([2]; read-out: Kd): 5.85 µM | Kd ([4]; read-out: Kd): 11.8 µM | Kd ([13]; read-out: Kd): 12.7 µM

CN[C@@H]1[C@H](O)[C@H](NC)[C@H]2O[C@@]3(O)C(=O)C[C@@H](C)O[C@H]3O[C@@H]2[C@H]1O [SPECTINOMYCIN]
Kd [2]: Not Active | Kd [4]: Not Active | inhibition [6]: inactive | inhibition [8]: inactive | inhibition [11]: inactive | Kd [13]: Not Active | inhibition [14]: inactive

CN[C@@H]1[C@H](O[C@H]2[C@H](O[C@H]3[C@H](O)[C@@H](O)[C@H](N=C(N)N)[C@@H](O)[C@@H]3N=C(N)N)O[C@@H](C)[C@]2(O)C=O)O[C@@H](CO)[C@H](O)[C@H]1O [STREPTOMYCIN]
Kd [1]: 48.2 µM | Kd ([2]; read-out: Kd): 18.5 µM | Kd ([4]; read-out: Kd): 26.8 µM | Ratio [5]: 1.8 | inhibition [6]: inactive | Ratio [7]: 2 | inhibition [8]: inactive | IC50 [9]: 688 µM | IC50 [10]: 678 µM | inhibition [11]: inactive | Activity [12]: 47% | Kd ([13]; read-out: Kd): 45 µM | inhibition [14]: inactive | Kd [15]: 61.1 µM

GENTAMICIN [listing 1 of 2 here]
Kd [1]: 8.1 µM | Kd ([2]; read-out: Kd): 4.98 µM | IC50 [16]: 540 µM | IC50 [3]: 159 µM | Kd ([4]; read-out: Kd): 3.67 µM | IC50 [9]: 242 µM | IC50 [10]: 667 µM | Kd ([13]; read-out: Kd): 6.64 µM | Kd [15]: 4.2 µM

GENTAMICIN [listing 2 of 2 here]
Ratio [5]: 4 | inhibition [6]: 10% | Ratio [7]: 1.1 | inhibition [8]: 10% | inhibition [11]: 10% | Activity [12]: 63% | inhibition [14]: 10%
